# In patent US20240058347A1, “DOSAGES FOR HDAC TREATMENT WITH REDUCED SIDE EFFECTS” (VIRACTA THERAPEUTICS, INC., priority 2019, published 2024):
# Legend:
# Test in all cases: biochemical
# HDAC2 = HDAC2 (Homo sapiens, UniProt Q92769)
# Description: (§1) Briefly, all of the compounds are dissolved in DMSO. A series of dilutions of the compounds were prepared with 10% DMSO in HDAC assay buffer and 5 μl of the dilution was added to a 50 μl reaction so that the final concentration of DMSO is 1% in all of reactions. The compounds were pre-incubated in duplicate at RT for 1 hour in a mixture containing HDAC assay buffer, 5 μg BSA, HDAC enzyme (see Table 7) and a the particular HDACi. After 1 hour, the enzymatic reactions were initiated by the addition of HDAC substrate (BPS Bioscience) to a final concentration of 10 μM or 2 μM. The enzymatic reaction proceeded for 30 minutes at 37° C.
# (§2) HDAC activity assays were performed in duplicates at each concentration. The fluorescent intensity data were analyzed using the computer software, Graphpad Prism. In the absence of the compound, the fluorescent intensity (Ft) in each data set was defined as 100% activity. In the absence of HDAC, the fluorescent intensity (Fb) in each data set was defined as 0% activity. The percent activity in the presence of each compound was calculated according to the following equation: % activity=(F−Fb)/(Ft−Fb), where F=the fluorescent intensity in the presence of the compound.
# (§3) The values of % activity versus a series of compound concentrations were then plotted using non-linear regression analysis of Sigmoidal dose-response curve generated with the equation Y=B+(T−B)/1+10^((Log C50−X)×Hill Slope), where Y=percent activity, B=minimum percent activity, T=maximum percent activity, X=logarithm of compound and Hill Slope=slope factor or Hill coefficient. The IC50 value was determined by the concentration causing a half-maximal percent activity.
# HDAC8 = biological target: T1, HDAC8 (Homo sapiens, UniProt Q9BY41)
# T1 sequence (Q9BY41 1-377): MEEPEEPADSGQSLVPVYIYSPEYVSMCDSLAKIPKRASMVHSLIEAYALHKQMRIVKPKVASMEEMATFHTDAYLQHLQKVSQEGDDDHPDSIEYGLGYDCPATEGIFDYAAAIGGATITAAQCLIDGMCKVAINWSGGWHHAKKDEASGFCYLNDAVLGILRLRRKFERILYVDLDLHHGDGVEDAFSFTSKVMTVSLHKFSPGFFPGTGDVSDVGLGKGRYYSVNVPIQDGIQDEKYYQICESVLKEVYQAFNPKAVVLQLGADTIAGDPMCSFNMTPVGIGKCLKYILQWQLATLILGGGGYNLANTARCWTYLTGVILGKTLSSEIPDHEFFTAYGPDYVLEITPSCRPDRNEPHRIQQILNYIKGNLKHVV
# Description: as §1, §2, §3
# HDAC6 = biological target: T2, HDAC6 (Homo sapiens, UniProt Q9UBN7)
# T2 sequence (Q9UBN7 1-1215): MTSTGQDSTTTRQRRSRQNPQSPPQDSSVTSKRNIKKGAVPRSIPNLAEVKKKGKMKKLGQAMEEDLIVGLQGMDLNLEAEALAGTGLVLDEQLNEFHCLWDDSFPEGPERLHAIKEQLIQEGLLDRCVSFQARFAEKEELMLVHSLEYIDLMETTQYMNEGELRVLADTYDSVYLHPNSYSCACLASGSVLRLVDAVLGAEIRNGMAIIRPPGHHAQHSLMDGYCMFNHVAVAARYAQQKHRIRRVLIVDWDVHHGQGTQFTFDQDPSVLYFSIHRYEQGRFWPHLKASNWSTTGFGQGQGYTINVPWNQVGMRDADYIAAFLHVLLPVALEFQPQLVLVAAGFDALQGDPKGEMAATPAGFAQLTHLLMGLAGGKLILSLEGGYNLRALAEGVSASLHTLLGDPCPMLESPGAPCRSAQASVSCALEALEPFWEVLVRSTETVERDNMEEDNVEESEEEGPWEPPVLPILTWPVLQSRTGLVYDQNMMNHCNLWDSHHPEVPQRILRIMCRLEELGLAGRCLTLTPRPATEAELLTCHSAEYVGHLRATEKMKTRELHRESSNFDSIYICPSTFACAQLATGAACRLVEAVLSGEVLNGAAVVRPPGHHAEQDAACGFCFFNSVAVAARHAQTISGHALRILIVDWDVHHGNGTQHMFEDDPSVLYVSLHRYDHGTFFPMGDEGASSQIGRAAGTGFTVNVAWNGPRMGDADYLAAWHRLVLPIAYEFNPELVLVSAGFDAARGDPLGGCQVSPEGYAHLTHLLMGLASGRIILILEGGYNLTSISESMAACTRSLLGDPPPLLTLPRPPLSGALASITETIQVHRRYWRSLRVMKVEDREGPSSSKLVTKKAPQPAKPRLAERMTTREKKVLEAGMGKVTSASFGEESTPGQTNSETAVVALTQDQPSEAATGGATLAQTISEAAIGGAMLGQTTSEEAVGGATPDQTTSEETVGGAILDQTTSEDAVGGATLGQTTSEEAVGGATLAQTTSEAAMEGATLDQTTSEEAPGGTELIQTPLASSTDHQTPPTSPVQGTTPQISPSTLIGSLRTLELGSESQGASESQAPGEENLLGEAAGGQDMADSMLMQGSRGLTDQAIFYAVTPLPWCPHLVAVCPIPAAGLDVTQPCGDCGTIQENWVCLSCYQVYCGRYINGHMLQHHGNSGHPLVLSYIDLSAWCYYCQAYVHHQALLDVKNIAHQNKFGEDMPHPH
# Description: as §1, §2, §3
# HDAC3/NCOR2 = HDAC3/NCOR2 (Homo sapiens, UniProt O15379)
# Description: as §1, §2, §3
# HDAC2, sequence (Q92769 whole entry): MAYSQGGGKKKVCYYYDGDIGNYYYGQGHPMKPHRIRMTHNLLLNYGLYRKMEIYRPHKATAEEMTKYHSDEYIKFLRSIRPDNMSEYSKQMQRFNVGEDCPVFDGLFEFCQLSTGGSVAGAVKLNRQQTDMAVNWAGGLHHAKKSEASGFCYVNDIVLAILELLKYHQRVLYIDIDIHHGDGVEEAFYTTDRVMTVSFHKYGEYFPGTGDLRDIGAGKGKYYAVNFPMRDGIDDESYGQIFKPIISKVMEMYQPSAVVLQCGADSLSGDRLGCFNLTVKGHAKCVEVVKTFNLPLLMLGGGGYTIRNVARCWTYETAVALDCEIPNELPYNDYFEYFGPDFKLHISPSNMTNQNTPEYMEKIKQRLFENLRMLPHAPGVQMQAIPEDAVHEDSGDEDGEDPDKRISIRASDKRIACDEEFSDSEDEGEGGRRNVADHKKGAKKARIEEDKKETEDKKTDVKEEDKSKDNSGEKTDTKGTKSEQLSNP
# HDAC3/NCOR2, sequence (O15379 whole entry): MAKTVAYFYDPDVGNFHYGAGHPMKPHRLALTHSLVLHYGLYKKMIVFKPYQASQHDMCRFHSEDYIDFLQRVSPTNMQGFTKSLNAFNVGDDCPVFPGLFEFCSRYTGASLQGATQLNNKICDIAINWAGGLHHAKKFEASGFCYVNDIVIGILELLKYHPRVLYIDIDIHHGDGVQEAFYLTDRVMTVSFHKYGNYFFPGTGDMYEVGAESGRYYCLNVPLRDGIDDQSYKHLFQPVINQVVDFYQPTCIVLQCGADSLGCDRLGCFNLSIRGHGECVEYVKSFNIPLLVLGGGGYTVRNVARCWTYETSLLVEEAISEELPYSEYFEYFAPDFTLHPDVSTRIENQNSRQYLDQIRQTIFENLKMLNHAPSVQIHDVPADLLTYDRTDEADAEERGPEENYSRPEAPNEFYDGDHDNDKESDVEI
# HDAC3/NCOR2, sequence (Q9Y618 395-489 partner limits assumed): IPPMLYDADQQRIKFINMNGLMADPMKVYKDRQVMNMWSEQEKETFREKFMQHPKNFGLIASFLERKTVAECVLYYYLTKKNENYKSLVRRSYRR
compound,measurement,setting,value
"O=C(NO)c1cnc(N2CC3C(C2)C3NCc2ccc3cc(F)ccc3n2)nc1 (stereo not shown) [Nstat, 2-(6-{[(6-Fluoroquinolin-2-yl)methyl]amino}-3-azabicyclo[3.1.0]hex-3-yl)-N-hydroxypyrimidine-5-carboxamide]",IC50,HDAC2,12 nM
same,IC50,HDAC8,860 nM
same,IC50,HDAC6,450 nM
same,IC50,HDAC3/NCOR2,12 nM
